Measured values published in patent publication US20260184675A1, “CHIRAL ISOMERIC SULFITE COMPOUND AND APPLICATION THEREOF” (Chengdu Hanova BioSciences Co., Ltd, priority 2024, published 2026).

How the values were obtained:
eggs of Aleyrodidae = assay: Effect on hatching of eggs of Aleyrodidae, leaf disc method; type: in vivo; settings: 10 ppm
Summary of the method: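 Inhibition of Aleyrodidae egg hatching was tested with a leaf disc method at 10 ppm. Egg numbers on each disc were counted under a microscope before treatment. Discs bearing eggs were soaked for 10 seconds in clear water or test solution, removed, and kept under moist conditions. Hatching was checked five days after insecticide delivery and hatched larvae were counted.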

eggs of Panonychus citri = assay: Effect on hatching of eggs of Panonychus citri, leaf disc method; type: in vivo; settings: 1 ppm
[1] = system: eggs of Spodoptera litura; assay: Effect on hatching of eggs of Spodoptera litura, egg piece soaking; type: in vivo; settings: 500 ppm
Summary of the method: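 Egg pieces of about 60 eggs were soaked 10 min in test agent at 500 ppm, blotted, then held singly at 24±1 °C, 80±10% RH, 12:12 L:D. Hatched and unhatched eggs were counted on day 4 to give hatching rate and control effect; 3 replicates.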

[2] = system: eggs of Harmonia axyridis; assay: Effect on hatching of eggs of Harmonia axyridis, egg card immersion; type: in vivo; settings: 100 ppm
Summary of the method: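 Egg cards (~20 eggs each) dipped 30 s in 100 ppm insecticide, air dried and kept moist at 27° C; 5 cards per treatment, 3 replicates. Hatching assessed 4 days after treatment against pre-treatment egg counts, and control effect calculated by formula.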

Magnaporthe grisea = type: cell-based; settings: 100 ppm

## CCC(COS(=O)OCCF)Oc1ccc(Cl)cc1Cl [19′-(R,R)]
Eggs of Aleyrodidae
  inhibitory activity on the hatching of eggs of Aleyrodidae (in words): strong inhibitory activities
Eggs of Aleyrodidae; Aleyrodidae eggs, 5 days after delivery, replicate 1
  Hatching rate (%), Replicate 1: 0.00%
Eggs of Aleyrodidae; Aleyrodidae eggs, 5 days after delivery, replicate 2
  Hatching rate (%), Replicate 2: 0.00%
Eggs of Aleyrodidae; Aleyrodidae eggs, 5 days after delivery, replicate 3
  Hatching rate (%), Replicate 3: 0.00%
Eggs of Aleyrodidae; Aleyrodidae eggs, leaf disc, replicate 1
  Number of hatched larvae 5 days after insecticide delivery, Replicate 1: 0
Eggs of Aleyrodidae; Aleyrodidae eggs, leaf disc, replicate 2
  Number of hatched larvae 5 days after insecticide delivery, Replicate 2: 0
Eggs of Aleyrodidae; Aleyrodidae eggs, leaf disc, replicate 3
  Number of hatched larvae 5 days after insecticide delivery, Replicate 3: 0
Eggs of Panonychus citri
  inhibitory effect on the hatching of eggs of Panonychus citri (in words): good inhibitory effects
Eggs of Panonychus citri; Panonychus citri eggs, 5 days after delivery, replicate 1
  Hatching rate (%), Replicate 1: 0.00%
Eggs of Panonychus citri; Panonychus citri eggs, 5 days after delivery, replicate 2
  Hatching rate (%), Replicate 2: 0.00%
Eggs of Panonychus citri; Panonychus citri eggs, 5 days after delivery, replicate 3
  Hatching rate (%), Replicate 3: 0.00%
Eggs of Panonychus citri; Panonychus citri eggs, leaf disc, replicate 1
  Number of hatched larvae 5 days after insecticide delivery, Replicate 1: 0
Eggs of Panonychus citri; Panonychus citri eggs, leaf disc, replicate 2
  Number of hatched larvae 5 days after insecticide delivery, Replicate 2: 0
Eggs of Panonychus citri; Panonychus citri eggs, leaf disc, replicate 3
  Number of hatched larvae 5 days after insecticide delivery, Replicate 3: 0
[1]
  inhibitory activity on the hatching of eggs of Spodoptera litura (in words): good inhibitory activities
[1]; Spodoptera litura eggs, 4 days after delivery, replicate 1, listed as 19′-(R, R)
  Hatching rate (%), Replicate 1: 17.54%
[1]; Spodoptera litura eggs, 4 days after delivery, replicate 2, listed as 19′-(R, R)
  Hatching rate (%), Replicate 2: 16.95%
[1]; Spodoptera litura eggs, 4 days after delivery, replicate 3, listed as 19′-(R, R)
  Hatching rate (%), Replicate 3: 19.12%
[1]; Spodoptera litura eggs, soaked 10 minutes, replicate 1, listed as 19′-(R, R)
  Number of unhatched larvae 4 days after insecticide delivery, Replicate 1: 47
[1]; Spodoptera litura eggs, soaked 10 minutes, replicate 2, listed as 19′-(R, R)
  Number of unhatched larvae 4 days after insecticide delivery, Replicate 2: 49
[1]; Spodoptera litura eggs, soaked 10 minutes, replicate 3, listed as 19′-(R, R)
  Number of unhatched larvae 4 days after insecticide delivery, Replicate 3: 55
[2]
  inhibitory activity on the hatching of eggs of Harmonia axyridis (in words): strong inhibitory activities
[2]; Harmonia axyridis egg cards, immersed 30 seconds, replicate 1, listed as 19′-(R, R)
  Number of hatched larvae 4 days after insecticide delivery, Replicate 1: 0
[2]; Harmonia axyridis egg cards, immersed 30 seconds, replicate 2, listed as 19′-(R, R)
  Number of hatched larvae 4 days after insecticide delivery, Replicate 2: 0
[2]; Harmonia axyridis egg cards, immersed 30 seconds, replicate 3, listed as 19′-(R, R)
  Number of hatched larvae 4 days after insecticide delivery, Replicate 3: 0
[2]; Harmonia axyridis eggs, 4 days after delivery, replicate 1, listed as 19′-(R, R)
  Hatching rate (%), Replicate 1: 0.00%
[2]; Harmonia axyridis eggs, 4 days after delivery, replicate 2, listed as 19′-(R, R)
  Hatching rate (%), Replicate 2: 0.00%
[2]; Harmonia axyridis eggs, 4 days after delivery, replicate 3, listed as 19′-(R, R)
  Hatching rate (%), Replicate 3: 0.00%
Magnaporthe grisea
  inhibitory rate against Magnaporthe grisea (in words): strong inhibitory rate
Magnaporthe grisea; 96-well plate, replicate 1
  Antifungal rate of Magnaporthe grisea (%), Replicate 1: 96.97%
Magnaporthe grisea; 96-well plate, replicate 2
  Antifungal rate of Magnaporthe grisea (%), Replicate 2: 97.35%
Magnaporthe grisea; 96-well plate, replicate 3
  Antifungal rate of Magnaporthe grisea (%), Replicate 3: 97.26%
